Reference: patent US9526248B2 (Rohm and Haas Company, priority 2012, dated 2016)
Read-outs that look alike come from different tables or passages of the source.

Assays:
Chlorella sp. ATCC 7516 = assay: Algal efficacy test of dry paint films (modified ASTM 5589, 6-well plates); type: cell-based; conditions: for inhibition at 5000 ppm: 504 h; for Total conc: total biocide concentration in paint at which the % inhibition is reported, pass level ≥75% inhibition, single actives: maximum concentration tested, no pass
Procedure: (§1) These paints were then diluted with an antimicrobial free acrylic/silicone based paint and mixed to prepare targeted concentrations of antimicrobial compounds for the testing. The total biocides concentrations tested were 125, 250, 500, 1000, 2000 and 5000 ppm. After biocides addition or dilution, the paints were mixed 90 seconds with the horse power shaker (AXEL 75M3372/Agitateur 50-10MI) until uniformity was achieved. Paints containing different antimicrobial compounds at the same levels were mixed together in order to obtain the desired ratio of antimicrobial compounds. After one day, the paints were applied to Schleicher & Schuell filter paper at 280 μm wet film thickness and dried for 3 days at room temperature avoiding direct exposure to sunlight. Square discs (1.6 cm×1.6 cm) were cut out from each panel and were used as the substrate for algal efficacy tests. This sample size allowed for an agar border when the sample disc was placed into the well of the test plate.
(§2) Algal efficacy was tested according to modified ASTM 5589 which is a standard accelerated test method for determining resistance of various coatings (including paints) to algal defacement. To accommodate for high-throughput screening, this method was scaled down from petri dishes to 6-well plates. Bold Modified Basal Freshwater Nutrient Solution was used as growth medium. A single coated filter paper coupon was placed with a pair of sterile forceps at the center of the agar plug (on top) with the painted surface facing upwards. Algal inoculums were prepared by mixing equal concentrations (1×10^6 cfu/ml) and equal volumes of exponentially growing algae cultures.
(§3) Each well that contains a tested coupon was inoculated with 1750 μl of algal suspensions (1×10^6 cfu/ml) making sure that the whole surface (paint film as well as the agar surrounding it) was evenly covered. The plates were incubated at room temp (21° C.-25° C.) with cyclic exposure to light and dark phases, for a period of three weeks.
(§4) At the end of the three week incubation period, the samples were scored for percent inhibition regarding visible algal growth compared to the blank sample (0% inhibition).
(§5) The SI is calculated based on F. C. Kull et.
(§6) SI value of <1 in the formula indicates a synergism of the blended biocides exists.
(§7) The minimal targeted inhibition was set at 75%, meaning a coupon with at least 75% algal growth inhibition was considered as a pass.

[1] = test system: Stichococcus bacillaris SAG 379-1a / CCAP 379/1a; assay: as above; type: cell-based; conditions: for inhibition at 5000 ppm: Stichococcus bacillaris, 504 h; for Total conc: total biocide concentration in paint at which the % inhibition is reported, pass level ≥75% inhibition, single actives: maximum concentration tested, no pass
Procedure: as §1, §2, §3, §4, §5, §6, §7

Row | Structure (SMILES) | inhibition at 5000 ppm (Chlorella sp. ATCC 7516) [%] | Total conc (Chlorella sp. ATCC 7516; 3 weeks) [ppm] | inhibition at 5000 ppm [1] [%] | Total conc ([1]; Stichococcus, 3 weeks) [ppm] | inhibition at 5000 ppm (Chlorella sp. ATCC 7516; total conc 5000 ppm in paint, visible algal growth vs blank, 3 weeks, read-out: % inhibition) [%] | inhibition at 5000 ppm ([1]; Stichococcus, total conc 5000 ppm in paint, visible algal growth vs blank, 3 weeks, read-out: % inhibition) [%]
1 | O=c1[nH]c2c(c(=O)n1C1CCCCC1)CCC2 [Lenacil, 3-cyclohexyl-1,5,6,7-tetrahydrocyclopentapyrimidine-2,4(3H)-dione] | 30 | 5000 | 70 | 5000 | – | –
2 | CCNc1nc(NC(C)(C)C)nc(SC)n1 [Terbutryn, N^2-tert-butyl-N^4-ethyl-6-methylthio-1,3,5-triazine-2,4-diamine] | – | 5000 | – | 5000 | 65 | 35
